Measured values: patent US9782491B2, “Peptide conjugates for treating pain” (priority 2012, dated 2017)
“And” between values parts separate entries of the source, which are not always exact repeats. Equal entries are not always repeated. Where two headings read alike, the source gives them in different places. Ends that are not written are not given here.

What was measured:
[1] = molecular target: interaction between CaV2.2 and CRMP2 (Rattus norvegicus, UniProt P47942); assay: Immunoprecipitation with CaV2.2 antibody from rat dorsal root ganglia lysate, CRMP2 immunoblot; assay type: biochemical; details: 10 μM peptide added for 30 min; rat DRG
adult rat DRG neurons = assay: Fura-2 calcium imaging of K+-stimulated Ca2+ influx; assay type: cell-based
adult mouse DRG neurons = assay: K+-stimulated release of iCGRP from isolated sensory neurons (RIA); assay type: cell-based; details: 10 μM peptide; for basal or resting release of iCGRP: 3.5 mM KCl
Procedure: EXAMPLE. Primary dorsal root ganglion (DRG) neuronal cultures. Isolation of sensory neurons from 1 to 2 month old wildtype C57BL/6J and Nf1^+/− C57BL/6J littermates (34) was performed exactly as described previously (11,35,36) while DRGs from adult rats were prepared as per Brittain and colleagues (11). All animals were housed, bred, and had free access to food and water in the Indiana University Laboratory Animal Research Center and used in procedures approved by the Animal Use and Care Committee of the Indiana University School of Medicine. All animals were genotyped prior to use in experiments.
EXAMPLE. Stimulated-release of iCGRP. Measurement of stimulus-evoked release and content of immunoreactive CGRP (iCGRP) from isolated sensory neurons was accomplished as previously published (11,33,35). After 5-7 days in culture, media was removed and the basal or resting release of iCGRP was measured from cells incubated for 10 minutes in HEPES buffer consisting of (in mM): 25 HEPES, 135 NaCl, 3.5 KCl, 2.5 CaCl2, 1 MgCl2, 3.3 dextrose, and 0.1% (w/v) bovine serum albumin, pH 7.4, and maintained at 37° C. […] The amount of iCGRP released in each incubation was measured by a radioimmunoas say (RIA). The minimum amount of iCGRP detected by the RIA is 5 fmol with a 95% confidence interval (37). After the release protocol, the remaining peptide content in each well was determined by exposing the cells to 2 N acetic acid for 10 minutes. Aliquots of acid solution were diluted in HEPES and iCGRP levels were determined by RIA. The release of iCGRP during the 10 min incubation period is expressed as percent of the total content. […]
EXAMPLE. […] The KCl-stimulated release of CGRP was measured from sensory neurons exposed to TAT-control, TAT-L1 or TAT-Ct-dis peptides, at 10 μM (a concentration at which Ca^2+ influx was largely unaffected by both peptides), included in the 10 minutes prior to and throughout the high K^+ exposures (total peptide exposure of 30 min). […]

[2] = cell permeability; Wender et al.; cited from earlier work
rats with TNI = details: 10 mg/kg i.p.; evaluated at 1 h and 4 h
Procedure: Antinociceptive efficacy following acute and continuous systemic infusion. Test animals with tibial nerve injury (TNI)-induced neuropathic pain behavior (over 6 months) were administered to a single intraperitoneal injection or continual constant-rate infusion of polyarginine-conjugated CBD3A6K (ST2-106). Female Sprague-Dawley rats with TNI were administered a single injection of saline or 20 mg/kg of ST2-106.
Female Sprague-Dawley rats with TNI were infused with saline or ST2-106 over a 24 to 72 hour period using subcutaneously implanted Alzet® osmotic minipumps. […] Rats were used at 28 days after tibial nerve injury.
Paw-withdrawal thresholds (PWT in millinewtons, mN) were measured in naïve rats and rats subjected to spared nerve injury (i.e. tibial nerve ligation, TNI).
Paw-withdrawal thresholds (PWT in millinewtons, mN) were also measured in naïve rats and rats subjected to TNI when treated with compounds described herein or vehicle for extended periods.

[3] = system: lumbar 4-5 DRG neurons from d4T-treated rats; assay: Current clamp recording of action potential firing; assay type: cell-based, rat; details: 10 μM
Procedure: EXAMPLE. […] Current clamp recordings were performed on small-to-medium (>30 μm->40 μm) diameter lumbar 4-5 DRG neurons from d4T-treated rats. Firing of 4-6 action potentials (APs) was elicited by a 1 second depolarizing current injection (ranging from 0.1 to 0.4 nA depending on the cell) every 30 seconds.

[4] = system: R-type (CaV2.3) Ca2+ currents; assay: R-type Ca2+ current recording in sensory neurons; assay type: cell-based
naïve rodents = details: in vivo, ip
ddC-injected rats = assay: ddC model of peripheral neuropathy, von Frey paw withdrawal threshold; assay type: in vivo, rat
[5] = system: adult Nf1+/- mice DRG neurons; assay: K+-stimulated release of iCGRP from Nf1+/- sensory neurons (RIA); assay type: cell-based, mouse
d4T-treated rats = assay: d4T-induced mechanical hypersensitivity, paw withdrawal threshold; details: administered at 10 mg

Substance: NSSFPSIHCSSWSEE [Ct-dis]
- amount of CRMP2 captured with CaV2.2 antibody [1]: reduced the amount of CRMP2 that could be captured
- peptide-mediated inhibition of [Ca2+]c influx, Ct-dis versus L1 (adult rat DRG neurons; 30 μM): much more pronounced
- K+-stimulated [Ca2+]c influx (adult rat DRG neurons; 20 min incubation, 3 μM and 30 μM (FIG. 1), 46.5 mM KCl): concentration-dependent decrease

Substance: YGRKKRRQRRR-YLEWIFKAEEVMLAE (YGRKKRRQRRRYLEWIFKAEEVMLAE) [TAT-L1]
- basal or resting release of iCGRP (adult mouse DRG neurons): 1.04±0.09 % total peptide content/10 min

Substance: R9: oligoarginine (SEQ ID NO: 1) (RRRRRRRRR)
- greater penetration than TAT [2]: 100 fold

Substance: RRRRRRRRRARSRLAELRGVPRGL [ST2-104]
- nerve-injury induced nociception (PWT) (rats with TNI): reverses nerve-injury induced nociception

Substance: YGRKKRRQRRRARSRLAELLGVPRGL [ST1-106]
- number of elicited action potentials [3]: reduces the number of elicited action potentials
- R-type calcium current density [4]: showed a significant decrease over control

Substance: RRRRRRRRRARSRLKELRGVPRGL [ST2-106]
- PWT in naïve animals (naïve rodents): unaffected

Substance: YGRKKRRQRRR-NSSFPSIHCSSSWSEE [TAT-Ct-dis]
- peptide-induced reversal of hypersensitivity (ddC-injected rats; 4 mg/kg i.p., two hours after injection): diminished to pre-peptide levels
- reversal of tactile hypersensitivity (PWT) (ddC-injected rats; ~4 mg/kg i.p., 1 h after injection, seven days after ddC): Almost complete reversal of tactile hypersensitivity
- less iCGRP release compared to TAT-control [5]: ~70%
- less iCGRP release compared to TAT-control (adult mouse DRG neurons; 50 mM KCl): ~70%

Substance: ARSRLAELRGVPRGL (listed as Homo sapiens) [CBD3, short peptide derived from CRMP2]
- less iCGRP release compared to TAT-control ([5]; Nf1+/- neurons, 50 mM KCl, 10 μM peptide): ~78%

Substance: YGRKKRRQRRRARSRLKELRGVPRGL [ST1-105]
- effect on healthy animals (pre-d4T) (d4T-treated rats): Neither TAT-CBD3 nor TAT-CBD3A6K administered at 10 mg showed an effect

Substance: YGRKKRRQRRR-WEAKEMLYFEALVIE (YGRKKRRQRRRWEAKEMLYFEALVIE) [TAT-control, reference compound]
- increase in iCGRP release over basal [5]: 8 to 10 fold
- basal or resting release of iCGRP (adult mouse DRG neurons): 1.58±0.17 % total peptide content/10 min and 0.92±0.09 % total peptide content/10 min

Substance: YGRKKRRQRRRARSRLAELRGVPRGL [ST1-104]
- effect on healthy animals (pre-d4T) (d4T-treated rats): Neither TAT-CBD3 nor TAT-CBD3A6K administered at 10 mg showed an effect
